Where two headings read alike, the source gives them in different places.
Tests used:
protein secretion = assay: Non-selective inhibition at protein secretion; type: cell-based; details: Homo sapiens; HepG2 cells; read-out: IC50-C non-selective inhibition at protein secretion
Excerpt: (§1) PCSK9 expression is actively regulated at transcription levels. Statins are known to stimulate PCSK9 transcription which in turn curbs the efficacy of statins in LDL lowering in humans. […] A number of primary and secondary assays to measure PCSK9 secretion/modulation in response to putative active agents are known. Primary assays: PCSK9 Secretion HepG2 SP/CRC (% Inhibition/IC50); PCSK9 Secretion Cell Health HepG2 SP/CRC (% Inhibition/IC50); and Metabolic Luciferase Reporter Assay CRC (IC50). Secondary assays: PCSK9 ELISA HepG2 CRC (IC50); ApoA-1 ELISA HepG2 CRC (IC50), and Profiling Biochemical Activity—Kinase Panel SP/CRC (% Efficacy/IC50). All of these assays are publicly accessible via Lilly's Open Innovation Drug Discovery program (as well as other sources).

IL17 secretion = IL17 secretion from human PBMCs stimulated with IL23, anti-CD3 and anti-CD28; type: cell-based; details: PBMC
Excerpt: The present compounds are thus useful to treat autoimmune disorders such as (but not limited to) arthritis, multiple sclerosis, psoriasis, and inflammatory bowel disease. The IL-17 pathway plays an essential pathological role in many autoimmune diseases including arthritis, multiple sclerosis, psoriasis, and inflammatory bowel disease. IL-17 is produced and secreted by at least two classes of lymphocytes, δγ and CD4+ T cells (Th17). The orphan nuclear receptor RORg is required for the differentiation of Th17 cells where over-expression in human and rodent T cells induces transcripts found in Th17 cells encoding key cytokines for the IL23 receptor and chemokines for the CCR6 receptor. In addition to RORg, recent global analysis of transcription factors has highlighted the molecular complexity of the Th17 differentiation program.
Active compounds are identified by measuring their ability to inhibitor IL17 secretion from human peripheral blood mononuclear cells (PBMCs) following stimulation of memory T cells by IL23, anti-CD3, and anti-CD28. See M. Ciofani, et al (2012) “A validated regulatory network for Th17 cell specification.” Cell, 151:289-303.

PCSK9 secretion = PCSK9 secretion in HepG2 cells; type: cell-based; details: Homo sapiens
Excerpt: as §1

IL5 = IL5 inhibition; type: cell-based
[1] = Cytotoxicity (PCSK9 Secretion Cell Health HepG2); type: cell-based; details: human, HepG2 cells; read-out: IC50-B cytotoxicity
Excerpt: as §1

GLP-1 secretion = GLP-1 secretion (ELISA); type: cell-based
Excerpt: Similarly, the present indole compounds also modify the activity of glucagon-like peptide 1 (GLP-1), which plays a critical role in hyperglycemia and diabetes in humans. Glucagon-like peptide 1 (GLP-1) is derived from transcription of the proglucagon gene followed by post-translational modifications of proglucagon to the following biologically active peptides: GLP-1 (7-37) and GLP-1 (7-36)-NH2. GLP-1 secretion by ileal L cells is dependent on the presence of nutrients in the lumen of the small intestine. GLP-1 is a potent anti-hyperglycemic hormone that induces glucose-dependent insulin secretion and suppresses glucagon secretion.
GLP-1 secretion is measured using an ELISA designed to detect the appropriate forms of GLP-1 secreted from these cells. See, for example, Gareth E. Kim and Patricia L. Brubaker (December 2006) “Glucagon-Like Peptide 1 Secretion by the L-Cell,” Diabetes: 55 (supplement 2).

[2] = HepG2 cells, read-out: IC50-A inhibition of PCSK9 secretion

melting point [°C]	IC50 (protein secretion) [µM]	IC50 (IL17 secretion) [µM]	IC50 (PCSK9 secretion; HepG2, read-out: PCSK9, IC50) [µM]	IC50 (PCSK9 secretion; [2]) [µM]	IC50 (IL5) [µM]	EC50 (GLP-1 secretion) [µM]	Structure (SMILES)	IC50 [1] [µM]
155 to 156	> 50	10	1.8	1.8	> 30		COc1ccc(C2C[C@@H]2c2c(C)c3ccccc3n2S(=O)(=O)c2ccc(C)cc2)cc1 (stereo in doubt) [8a, 2-(2-(4-methoxyphenyl)cyclopropyl)-3-methyl-1-tosyl-1H-indole]	> 50
156 to 157			21	21			Cc1ccc(S(=O)(=O)n2c([C@@H]3CC3c3ccccc3)c(C)c3ccccc32)cc1 (stereo in doubt) [8b, 3-methyl-2-(2-phenylcyclopropyl)-1-tosyl-1H-indole]	
57 to 58						7.3	Cc1ccc(S(=O)(=O)n2c(C3C[C@]3(CO)c3ccccc3)c(C)c3ccccc32)cc1 (stereo in doubt) [8i, (2-(3-methyl-1-tosyl-1H-indol-2-yl)-1-phenylcyclopropyl)methanol]	
106 to 107	> 50	7.3	9.9	9.9	> 30		Cc1ccc(S(=O)(=O)n2c([C@H]3C[C@H]3c3ccc4c(c3)OCO4)c(C)c3ccccc32)cc1 [8f, 2-(2-(benzo[d][1,3]dioxol-5-yl)cyclopropyl)-3-methyl-1-tosyl-1H-indole]	> 50
	> 50		0.7	0.7			CCc1c(C2CC2c2ccc(OC)cc2)n(S(=O)(=O)c2ccc(C)cc2)c2ccccc12 (stereo not shown) [10g, 3-ethyl-2-(2-(4-methoxyphenyl)cyclopropyl)-1-tosyl-1H-indole]	> 50
75 to 76						28.4	COc1ccc(C2C=CCCc3c2c2ccccc2n3S(=O)(=O)c2ccc(C)cc2)cc1 (stereo not shown) [compound 14, (Z)-10-(4-methoxyphenyl)-5-tosyl-5,6,7,10-tetrahydrocyclohepta[b]indole]	

From patent publication US10174008B2, “Synthesis of cyclopropyl indoles and cyclohepta[B]indoles, pharmaceutical compositions containing them and method of using them” (WISCONSIN ALUMNI RESEARCH FOUNDATION, priority 2014, dated 2019)
